Like-named read-outs stand apart in the source and are kept apart here.
How the values were obtained:
Format in all cases: cell-based
[1] = tested on: HCMV (human cytomegalovirus, strain AD 169); test: HCMV plaque reduction antiviral assay in WI-38 cell culture monolayers; conditions: plaque reduction after 6-7 days incubation at 37°C, read-out: ID50 (μM) for the following viruses HCMV
Procedure: (§1) Assays were performed in cell culture systems to determine the concentrations of compounds that are effective in preventing several kinds of viral infections. HSV-1 (herpes simplex virus type 1, strain Schooler), HSV-2 (herpes simplex virus type 2, strain 186), VZV (varicella zoster virus, strain ELLEN), HCMV (human cytomegalovirus, strain AD 169). HSV-1, HSV-2, HCMV, and VZV antiviral assays: Virus was adsorbed to WI-38 cell culture monolayers in 6 cell culture plates (Costar, Cambridge, MA) for 1 hour prior to addition of maintenance medium containing duplicate dilutions of the test compound. Inhibition of plaque development was evaluated on fixed and stained monolayers after 4 days incubation at 37°C for HSV-1 and HSV-2 and after 6-7 days incubation at 37°C for HCMV and VZV. ID50 values were determined from the drug concentration which conferred at least a 50% plaque reduction compared to virus controls.

[2] = tested on: HSV-1 (herpes simplex virus type 1, strain Schooler); test: HSV-1 plaque reduction antiviral assay in WI-38 cell culture monolayers; conditions: WI-38 cell monolayers, plaque reduction after 4 days incubation at 37°C, read-out: ID50 (μM) for the following viruses HSV-1
Procedure: as §1

[3] = tested on: HSV-2 (herpes simplex virus type 2, strain 186); test: HSV-2 plaque reduction antiviral assay in WI-38 cell culture monolayers; conditions: WI-38 cell monolayers, plaque reduction after 4 days incubation at 37°C, read-out: ID50 (μM) for the following viruses HSV-2
Procedure: as §1

[4] = tested on: VZV (varicella zoster virus, strain ELLEN); test: VZV plaque reduction antiviral assay in WI-38 cell culture monolayers; conditions: plaque reduction after 6-7 days incubation at 37°C, read-out: ID50 (μM) for the following viruses VZV
Procedure: as §1

Structure (SMILES) | IC50 ([1]; Human betaherpesvirus 5, WI-38 cell monolayers) | IC50 ([2]; Human alphaherpesvirus 1, 96 h) | IC50 ([3]; Human alphaherpesvirus 2, 96 h) | IC50 ([4]; Human alphaherpesvirus 3, WI-38 cell monolayers) | IC50 ([1]; WI-38 cell monolayers) | IC50 [2] | IC50 [3] | IC50 ([4]; WI-38 cell monolayers)
Nc1nc2c(ncn2C2CC(F)(CO)C2CO)c(=O)[nH]1 (stereo not drawn) [Product of Example 1, (1α,2β,3β)-2-Amino-9-[3-fluoro-2,3-bis(hydroxymethyl)cyclobutyl]-1,9-dihydro-6H-purin-6-one] | 7 to 18 µM | 0.35 to 0.7 µM | 0.35 to 0.7 µM | 1.1 µM | – | – | – | –
Nc1nc2c(ncn2[C@H]2C[C@@](F)(CO)[C@@H]2O)c(=O)[nH]1 [Product of Example 2, (1 α,2β,3β)-2-Amino-9-[3-fluoro-2-hydroxy-3-(hydroxymethyl)cyclobutyl]-1,9-dihydro-6H-purin-6-one] | – | – | – | – | 37 µM | 37 to 93 µM | 37 to 93 µM | 7 to 19 µM

Reference: patent EP0554025A2, “Fluorinated cyclobutyl purines and pyrimidines” (E.R. SQUIBB & SONS, INC., priority 1992, dated 1993)
